Results: patent publication US20240368120A1 (Terns Pharmaceuticals, Inc., priority 2023, published 2024)

Target: T1, human GLP-1R receptor (Homo sapiens, UniProt P43220)
T1 construct: expressed in transfected cells
Experiment: GLP-1R low expression cell assay (cAMP TR-FRET, CHO-K1_hGLP-1Rlow_clone10 cells)
Assay type: cell-based
Conditions: for EC50: cAMP TR-FRET, 30 min at 25° C.; for Emax: maximum activation relative to control GLP-1 peptide agonist
Method: Stable cell lines expressing high and low GLP-1R surface expression were generated in CHO-K1 cells transfected (Fugene 6) with a puromycin selectable DNA plasmid encoding human GLP-1R receptor (accession number: NM_002062.5) under control of an EF1A promoter. Transfected cells were seeded into 24-well plates (9,000 cells/well) containing complete medium and incubated in a humidified incubator at 37° C. with 5% carbon dioxide. After overnight incubation, medium was replaced with complete medium supplemented with puromycin (6 μg/mL) and refreshed every 2-3 days to select for stably transfected cells. Individual pools of selected cells were expanded prior to analysis for responsiveness to GLP-1 control peptide using a TR-FRET assay to detect cAMP (LANCE Ultra CAMP Assay, Perkin Elmer). Briefly, cells were collected in Versene solution, plated in 384-well plates (1,000 cells/well) and combined with serially diluted GLP-IR control peptide (10 nL) using an acoustic dispenser (ECHO). Plates were incubated for 30 minutes at 25° C. prior to the addition of EU-CAMP tracer (5 μL) and Ulight-anti-CAMP (5 μL) reagents to each well, followed by 15 minutes incubation at 25° C. TR-FRET signal was detected using an En Vision Multimode Plate Reader (excitation=320 nm; emission=615 and 655 nm). Dose-response curves were used to generate EC50 values as a measure of responsiveness to the GLP-IR control peptide. Selected cell lines were monitored for responsiveness over multiple passages to ensure stability. […] Briefly, GLP-IR expression was analyzed by flow cytometry using a fluorescein-labeled Exendin-4 peptide fluorescent probe (FLEX). Cells were harvested in Versene solution and washed 3-times with PBS+0.5% BSA before incubation with FLEX reagent (10 μM) for 2 hours at room temperature. After incubation, cells were washed 3-times in PBS+0.5% BSA before final resuspension in PBS prior to analysis by flow cytometry to measure FLEX mean fluorescence intensity (MFI) as a measure of GLP-IR expression on the cell surface.
For compound testing in the CHO-K1_hGLP-IRlow_clone10 cell line, cells were seeded in 384-well plates (1,000 cells/well). Test compounds were serially diluted in DMSO (10-point, 3-fold dilution), added to wells using an ECHO dispenser (10 nL/well) and plates were centrifuged for 1 min and agitated for 2 min at room temperature prior to 30-minute incubation at 25° C. After incubation, Eu-CAMP (5 μL) and Ulight-anti-cAMP (5 μL) reagents were added to each well, followed by centrifugation for 1 minute, agitation for 2 minutes at room temperature, and final incubation of the plates at 25° C. for 15 minutes. Plates were read using an EnVision microplate reader (excitation=320 nm; emission=615 and 655 nm). Dose-response curves were generated from duplicate wells based on percent activation calculated relative to a control GLP-1 peptide agonist that was run in parallel. EC50 values were determined by fitting percent activation as a function of compound concentration using the Hill equation (XLfit).
The compounds tested were compound samples prepared according to the General Procedures described in the Examples section.

T1 sequence (P43220 24-463): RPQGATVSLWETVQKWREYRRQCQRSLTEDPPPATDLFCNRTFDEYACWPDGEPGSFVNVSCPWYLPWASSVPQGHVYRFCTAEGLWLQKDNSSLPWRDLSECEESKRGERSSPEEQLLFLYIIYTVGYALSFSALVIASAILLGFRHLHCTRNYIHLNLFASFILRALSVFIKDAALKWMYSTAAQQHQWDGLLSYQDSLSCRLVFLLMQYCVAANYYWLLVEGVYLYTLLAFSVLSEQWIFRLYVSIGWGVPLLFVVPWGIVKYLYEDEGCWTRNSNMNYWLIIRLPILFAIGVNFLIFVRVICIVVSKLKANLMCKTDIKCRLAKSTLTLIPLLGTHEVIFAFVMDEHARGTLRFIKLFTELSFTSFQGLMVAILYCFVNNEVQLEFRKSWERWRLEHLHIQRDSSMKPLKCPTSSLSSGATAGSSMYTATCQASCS

For `Cn1c(CN2CCC(c3cccc(OCc4ccc(Cl)cc4F)n3)CC2)nc2c(OC[C@@H]3CCO3)cc(C(=O)O)cc21` [Compound 211, (S)-2-((4-(6-((4-Chloro-2-fluorobenzyl)oxy)pyridin-2-yl)piperidin-1-yl)methyl)-1-methyl-4-(oxetan-2-ylmethoxy)-1H-benzo[d]imidazole-6-carboxylic acid], the EC50 was 10 to 100 nM and the Emax was greater than 85%.
For `Cn1c(CN2CC=C(c3cccc(OCc4ccc(Cl)cc4F)c3)CC2)nc2c(OC(F)F)cc(C(=O)O)cc21` [Compound 159, 2-((4-(3-((4-Chloro-2-fluorobenzyl)oxy)phenyl)-3,6-dihydropyridin-1(2H)-yl)methyl)-4-(difluoromethoxy)-1-methyl-1H-benzo[d]imidazole-6-carboxylic acid], the EC50 was 100 to 1000 nM and the Emax was greater than 85%.
`N#Cc1ccc(COc2cccc(C3CCN(Cc4nc5c(N)nc(C(=O)O)cc5n4C[C@@H]4CCO4)CC3)n2)c(F)c1` [Compound 134, (S)-4-amino-2-((4-(6-((4-cyano-2-fluorobenzyl)oxy)pyridin-2-yl)piperidin-1-yl)methyl)-1-(oxetan-2-ylmethyl)-1H-imidazo[4,5-c]pyridine-6-carboxylic acid] was tested, and the EC50 was 10 to 100 nM and the Emax was greater than 85%.
Molecule `Cn1c(CN2CCC(c3cccc(OCc4ccc(C#N)cc4F)n3)CC2)nc2c(OC(C)(C)C)cc(C(=O)O)cc21` [Compound 135, 4-(tert-Butoxy)-2-((4-(6-((4-cyano-2-fluorobenzyl)oxy)pyridin-2-yl)piperidin-1-yl)methyl)-1-methyl-1H-benzo[d]imidazole-6-carboxylic acid] has an EC50 of 100 to 1000 nM and an Emax greater than 85%.
With `Cn1c(CN2CCC(c3cccc(OCc4ccc(Cl)cc4F)c3)CC2)nc2c(OC(F)F)cc(NCC(=O)O)cc21` [Compound 264, (2-((4-(3-((4-chloro-2-fluorobenzyl)oxy)phenyl)piperidin-1-yl)methyl)-4-(difluoromethoxy)-1-methyl-1H-benzo[d]imidazol-6-yl)glycine] the EC50 was greater than 1000 nM and the Emax was 25 to 50%.
`COc1cc(C(=O)O)cc2c1nc(N(C)[C@H]1CC[C@H](c3cccc(OCc4ccc(C#N)cc4F)n3)CC1)n2C` [Compound 178, 2-(((1r,4r)-4-(6-((4-Cyano-2-fluorobenzyl)oxy)pyridin-2-yl)cyclohexyl)(methyl)amino)-4-methoxy-1-methyl-1H-benzo[d]imidazole-6-carboxylic acid] was tested, and the EC50 was less than 10 nM and the Emax was greater than 85%.
With `C[C@]1(c2ccc(Cl)cn2)Oc2cccc(C3CCN(Cc4nc5c(O)cc(C(=O)O)cc5n4C[C@@H]4CCO4)CC3)c2O1` [Compound 92, 2-((4-((S)-2-(5-Chloropyridin-2-yl)-2-methylbenzo[d][1,3]dioxol-4-yl)piperidin-1-yl)methyl)-4-hydroxy-1-(((S)-oxetan-2-yl)methyl)-1H-benzo[d]imidazole-6-carboxylic acid] the EC50 was less than 10 nM and the Emax was greater than 85%.
`Cn1c(CN2CCC(c3cccc(OCc4ccccc4F)n3)CC2)nc2c(OC(F)F)cc(C(=O)O)cc21` [Compound 251, 4-(Difluoromethoxy)-2-((4-(6-((2-fluorobenzyl)oxy)pyridin-2-yl)piperidin-1-yl)methyl)-1-methyl-1H-benzo[d]imidazole-6-carboxylic acid] gave an EC50 of 100 to 1000 nM.
For `N#Cc1ccc(COc2cccc(C3CCN(Cc4nc5c(O)cc(C(=O)O)cc5n4Cc4cncs4)CC3)n2)c(F)c1` [Compound 82, 2-((4-(6-((4-Cyano-2-fluorobenzyl)oxy)pyridin-2-yl)piperidin-1-yl)methyl)-4-hydroxy-1-(thiazol-5-ylmethyl)-1H-benzo[d]imidazole-6-carboxylic acid], the EC50 was less than 10 nM and the Emax was greater than 85%.
`Cn1c(Cc2ccc(Oc3cccc(COc4ccc(Cl)cc4F)n3)cc2F)nc2c(OC(F)F)cc(C(=O)O)cc21` [Compound 367, 2-(4-((6-((4-Chloro-2-fluorophenoxy)methyl)pyridin-2-yl)oxy)-2-fluorobenzyl)-4-(difluoromethoxy)-1-methyl-1H-benzo[d]imidazole-6-carboxylic acid] was tested, and the EC50 was greater than 1000 nM and the Emax was greater than 85%.
For `Cn1c(CN2CCC(c3cccc(OCc4ccc(C(F)(F)F)cc4F)n3)CC2)nc2c(OC(F)F)cc(C(=O)O)cc21` [Compound 223], the EC50 was 10 to 100 nM and the Emax was greater than 85%.
`Cn1c(CN2CCC(c3cccc(OCc4ccc(Cl)cc4OC(F)F)n3)CC2)nc2c(OC(F)F)cc(C(=O)O)cc21` [Compound 246, 2-((4-(6-((4-Chloro-2-(difluoromethoxy)benzyl)oxy)pyridin-2-yl)piperidin-1-yl)methyl)-4-(difluoromethoxy)-1-methyl-1H-benzo[d]imidazole-6-carboxylic acid] gave an EC50 of less than 10 nM and an Emax greater than 85%.
`CCOc1cc(CC(=O)O)cc2c1nc(CN1CCC(c3cccc(OCc4ccc(C#N)cc4F)n3)CC1)n2C` [Compound 259, 2-(2-((4-(6-((4-Cyano-2-fluorobenzyl)oxy)pyridin-2-yl)piperidin-1-yl)methyl)-4-ethoxy-1-methyl-1H-benzo[d]imidazol-6-yl) acetic acid] was tested, and the EC50 was 100 to 1000 nM and the Emax was greater than 85%.
`COc1cc(C(=O)O)cc2c1nc(CN1CCC(c3cccc4c3O[C@@H](c3ccc(C#N)cc3F)CO4)CC1)n2Cc1cncs1` [Compound 63, (S)-2-((4-(3-(4-cyano-2-fluorophenyl)-2,3-dihydrobenzo[b][1,4]dioxin-5-yl)piperidin-1-yl)methyl)-4-methoxy-1-(thiazol-5-ylmethyl)-1H-benzo[d]imidazole-6-carboxylic acid] was tested, and the EC50 was less than 10 nM.
`[2H]C([2H])([2H])Oc1cc(C(=O)O)cc2c1nc(CN1CCC(c3cccc(OCc4ccc(C#N)cc4F)n3)CC1)n2C[C@@H]1CCO1` [Compound 108, (S)-2-((4-(6-((4-Cyano-2-fluorobenzyl)oxy)pyridin-2-yl)piperidin-1-yl)methyl)-4-(methoxy-d3)-1-(oxetan-2-ylmethyl)-1H-benzo[d]imidazole-6-carboxylic acid] was tested, and the EC50 was less than 10 nM and the Emax was greater than 85%.
With `[2H]C([2H])([2H])N(c1nc2c(OC(F)F)cc(C(=O)O)cc2n1C)[C@H]1CC[C@H](c2cccc(OCc3ccc(Cl)cc3F)n2)CC1` [Compound 372, 2-(((1r,4r)-4-(6-((4-Chloro-2-fluorobenzyl)oxy)pyridin-2-yl)cyclohexyl)(methyl-d3)amino)-4-(difluoromethoxy)-1-methyl-1H-benzo[d]imidazole-6-carboxylic acid] the EC50 was less than 10 nM and the Emax was greater than 85%.
In the case of `Cn1c(CN2CCC(c3cccc(COc4ccc(C#N)cc4F)n3)CC2)nc2c(OC(F)F)cc(C(=O)O)cc21` [Compound 130, 2-((4-(6-((4-Cyano-2-fluorophenoxy)methyl)pyridin-2-yl)piperidin-1-yl)methyl)-4-(difluoromethoxy)-1-methyl-1H-benzo[d]imidazole-6-carboxylic acid], the EC50 is reported as greater than 1000 nM and the Emax is reported as 25 to 50%.
Work on `O=C(O)c1ccc2nc(CN3CCC(c4cccc(OCc5ccc(Cl)cc5F)n4)CC3)c3c(c2c1)COCC3` [Compound 244, 5-((4-(6-((4-chloro-2-fluorobenzyl)oxy)pyridin-2-yl)piperidin-1-yl)methyl)-3,4-dihydro-1H-pyrano[4,3-c]quinoline-9-carboxylic acid] yielded an EC50 greater than 1000 nM and an Emax of less than 25%.
In the case of `Cn1c(CN2CCC(c3cccc4c3O[C@@H](c3ccc(Cl)cc3F)CO4)CC2)nc2c(OC(F)F)cc(C(=O)O)cc21` [Compound 334, (S)-2-((4-(3-(4-Chloro-2-fluorophenyl)-2,3-dihydrobenzo[b][1,4]dioxin-5-yl)piperidin-1-yl)methyl)-4-(difluoromethoxy)-1-methyl-1H-benzo[d]imidazole-6-carboxylic acid], the EC50 is reported as 10 to 100 nM and the Emax is reported as greater than 85%.
Molecule `COCCn1c(CN2CCC(c3cccc(OCc4ccc(C#N)cc4F)n3)CC2)nc2c(OC(F)F)cc(C(=O)O)cc21` [Compound 106, 2-((4-(6-((4-Cyano-2-fluorobenzyl)oxy)pyridin-2-yl)piperidin-1-yl)methyl)-4-(difluoromethoxy)-1-(2-methoxyethyl)-1H-benzo[d]imidazole-6-carboxylic acid] has an EC50 of less than 10 nM and an Emax greater than 85%.
